Among the data in patent publication US20250325534A1, “MICROBIOCIDAL TETRAHYDROISOQUINOLINE DERIVATIVES” (SYNGENTA CROP PROTECTION AG, priority 2021, published 2025) are inhibition of growth values, retold here.

A value given as a limit tells only on which side of the number the result lay.

Holding throughout (type): cell-based
In experiment [1] the test system is Mycosphaerella graminicola. Description: Mycosphaerella graminicola (Septoria tritici) / liquid culture (Septoria blotch). The note with it: Zymoseptoria tritici, 96 h, photometrically 4-5 days after application, read-out: control of Mycosphaerella graminicola. As for the experimental part: Example B19: Mycosphaerella graminicola (Septoria tritici)/Liquid Culture (Septoria Blotch) Conidia of the fungus from cryogenic storage are directly mixed into a nutrient broth (potato dextrose broth). After placing a DMSO solution of test compound into a microtiter plate (96-well format), the nutrient broth containing the fungal spores is added. The test plates are incubated at 24° C. and the inhibition of growth is determined photometrically 4-5 days after application.

For a further experiment, the system named is Mycosphaerella arachidis. Description: Mycosphaerella arachidis (Cercospora arachidicola) / liquid culture (early leaf spot). The following applies: 96 h, photometrically 4-5 days after application, read-out: control of Mycosphaerella arachidis. Here is the method:
Example B11: Mycosphaerella arachidis (Cercospora arachidicola)/Liquid Culture (Early Leaf Spot) Conidia of the fungus from cryogenic storage are directly mixed into a nutrient broth (potato dextrose broth). After placing a DMSO solution of test compound into a microtiter plate (96-well format), the nutrient broth containing the fungal spores is added. The test plates are incubated at 24° C. and the inhibition of growth is determined photometrically 4-5 days after application.

In the next experiment the test system is Monographella nivalis. Description: Monographella nivalis (Microdochium nivale) / liquid culture (foot rot cereals). The following applies: 96 h, photometrically 4-5 days after application, read-out: control of Monographella nivalis. Here is the method:
Example B10: Monographella nivalis (Microdochium nivale)/Liquid Culture (Foot Rot Cereals) Conidia of the fungus from cryogenic storage are directly mixed into a nutrient broth (potato dextrose broth). After placing a DMSO solution of test compound into a microtiter plate (96-well format), the nutrient broth containing the fungal spores is added. The test plates are incubated at 24° C. and the inhibition of growth is determined photometrically 4-5 days after application.

The subject of another experiment is Glomerella lagenarium. In words: Glomerella lagenarium (Colletotrichum lagenarium) / liquid culture (anthracnose). The following applies: Colletotrichum orbiculare, 72 h, photometrically 3-4 days after application, read-out: control of Glomerella lagenarium. As for the experimental part: Example B5: Glomerella Lagenarium (Colletotrichum Lagenarium)/Liquid Culture (Anthracnose) Conidia of the fungus from cryogenic storage are directly mixed into a nutrient broth (potato dextrose broth). After placing a DMSO solution of test compound into a microtiter plate (96-well format), the nutrient broth containing the fungal spores is added. The test plates are incubated at 24° C. and the inhibition of growth is measured photometrically 3-4 days after application.

For the compound `CC1c2ccc(OC(F)F)cc2C(C)(c2cnn(C)c2)CN1C(=O)c1cc(-c2ccc(F)cc2F)on1` (stereo not drawn) [Compound P-30, [6-(difluoromethoxy)-1,4-dimethyl-4-(1-methylpyrazol-4-yl)-1,3-dihydroisoquinolin-2-yl]-[5-(2,4-difluorophenyl)isoxazol-3-yl]methanone], the inhibition of growth at 20 ppm (in experiment [1]; with Mycosphaerella arachidis; in the experiment on Monographella nivalis) was ≥ 80% in each case.
Consider `CC1c2ccc(OCC(F)F)cc2C(C)(c2cnn(C)c2)CN1C(=O)c1cc(-c2ccc(F)cc2F)on1` (stereo not drawn) [Compound P-33, [6-(2,2-difluoroethoxy)-1,4-dimethyl-4-(1-methylpyrazol-4-yl)-1,3-dihydroisoquinolin-2-yl]-[5-(2,4-difluorophenyl)isoxazol-3-yl]methanone], for which the inhibition of growth at 20 ppm (in experiment [1]; in the experiment with Mycosphaerella arachidis; in the experiment on Monographella nivalis) was ≥ 80% in each case.
Take `COc1ccc2c(c1)C(C)(c1cnn(C)c1)CN(C(=O)c1cc(-c3ccccc3)on1)C2C` (stereo not drawn) [Compound P-39, [6-methoxy-1,4-dimethyl-4-(1-methylpyrazol-4-yl)-1,3-dihydroisoquinolin-2-yl]-(5-phenylisoxazol-3-yl)methanone]: the inhibition of growth at 20 ppm (in experiment [1]; with Mycosphaerella arachidis; with Monographella nivalis) was ≥ 80% in each case.
For the compound `Cn1cc(C2CN(C(=O)c3cc(-c4ccc(F)cc4F)on3)Cc3ccc(Cl)cc32)cn1` (stereo not drawn) [Compound P-58, [6-chloro-4-(1-methylpyrazol-4-yl)-3,4-dihydro-1H-isoquinolin-2-yl]-[5-(2,4-difluorophenyl)isoxazol-3-yl]methanone], the inhibition of growth at 20 ppm (in the experiment on Glomerella lagenarium; in experiment [1]; in the experiment with Monographella nivalis) was ≥ 80% in each case.
`Cn1cc(C2CN(C(=O)c3ccc(-c4ccc(C(F)(F)F)cc4)o3)Cc3ccccc32)cn1` (stereo not drawn) [Compound P-76, [4-(1-methylpyrazol-4-yl)-3,4-dihydro-1H-isoquinolin-2-yl]-[5-[4-(trifluoromethyl)phenyl]-2-furyl]methanone]: the inhibition of growth at 20 ppm with Glomerella lagenarium was ≥ 80%.
Same read-out and setting: next, `Cn1cc(C2CN(C(=O)c3ccc(-c4ccc(F)cc4)o3)Cc3ccccc32)cn1` (stereo not drawn) [Compound P-97, [5-(4-fluorophenyl)-2-furyl]-[4-(1-methylpyrazol-4-yl)-3,4-dihydro-1H-isoquinolin-2-yl]methanone]: ≥ 80%.
For the compound `Cn1cc(C2CN(C(=O)c3cc(-c4ccc(F)cc4F)on3)Cc3cc(C(F)(F)F)ccc32)cn1` (stereo not drawn) [Compound P-111, [5-(2,4-difluorophenyl)isoxazol-3-yl]-[4-(1-methylpyrazol-4-yl)-7-(trifluoromethyl)-3,4-dihydro-1H-isoquinolin-2-yl]methanone], the inhibition of growth at 20 ppm (in the experiment with Glomerella lagenarium; in experiment [1]; in the experiment with Monographella nivalis) was ≥ 80% each time.
As for `Cc1nn(C)c(C)c1C1CN(C(=O)c2cc(-c3ccc(Cl)cc3F)on2)Cc2ccccc21` (stereo not drawn) [Compound P-125, [5-(4-chloro-2-fluoro-phenyl)isoxazol-3-yl]-[4-(1,3,5-trimethylpyrazol-4-yl)-3,4-dihydro-1H-isoquinolin-2-yl]methanone], the inhibition of growth at 20 ppm (in experiment [1]; with Mycosphaerella arachidis; in the experiment on Monographella nivalis) was ≥ 80% in each case.
For the compound `Cn1cc(C2CN(C(=O)c3cc(-c4cc(F)ccc4F)on3)Cc3ccccc32)cn1` (stereo not drawn) [Compound P-149, [5-(2,5-difluorophenyl)isoxazol-3-yl]-[4-(1-methylpyrazol-4-yl)-3,4-dihydro-1H-isoquinolin-2-yl]methanone], the inhibition of growth at 20 ppm (in the experiment on Glomerella lagenarium; in experiment [1]; in the experiment on Monographella nivalis) was ≥ 80% each time.
As for `Cc1ccccc1-c1cc(C(=O)N2Cc3ccccc3C(c3cnn(C)c3)C2)no1` (stereo not drawn) [Compound P-169, [4-(1-methylpyrazol-4-yl)-3,4-dihydro-1H-isoquinolin-2-yl]-[5-(o-tolyl)isoxazol-3-yl]methanone], the inhibition of growth at 20 ppm (in the experiment on Glomerella lagenarium; in experiment [1]; in the experiment with Monographella nivalis) was ≥ 80% each time.
Regarding `Cn1cc(C2CN(C(=O)c3cc(-c4cccn4C)on3)Cc3ccccc32)cn1` (stereo not drawn) [Compound P-179, [4-(1-methylpyrazol-4-yl)-3,4-dihydro-1H-isoquinolin-2-yl]-[5-(1-methylpyrrol-2-yl)isoxazol-3-yl]methanone], the inhibition of growth at 20 ppm (in experiment [1]; in the experiment on Mycosphaerella arachidis; in the experiment with Monographella nivalis) was ≥ 80% throughout.
For the compound `Cc1cccc(-c2cc(C(=O)N3Cc4ccccc4C(c4cnn(C)c4)C3)no2)c1` (stereo not drawn) [Compound P-187, [4-(1-methylpyrazol-4-yl)-3,4-dihydro-1H-isoquinolin-2-yl]-[5-(m-tolyl)isoxazol-3-yl]methanone], the inhibition of growth at 20 ppm (in the experiment with Glomerella lagenarium; in experiment [1]) was ≥ 80% throughout.
Regarding `CC1c2ccccc2C(c2cnn(C)c2)(C(C)C)CN1C(=O)c1cc(-c2ccc(F)cc2F)on1` (stereo not drawn) [Compound P-220, [5-(2,4-difluorophenyl)isoxazol-3-yl]-[4-isopropyl-1-methyl-4-(1-methylpyrazol-4-yl)-1,3-dihydroisoquinolin-2-yl]methanone], the inhibition of growth at 20 ppm (in experiment [1]; in the experiment with Mycosphaerella arachidis) was ≥ 80% in each case.
For `CCC1(c2cnn(C)c2)CN(C(=O)c2cc(-c3ccc(F)cc3F)on2)C(C)c2ccccc21` (stereo not drawn) [Compound P-222, [5-(2,4-difluorophenyl)isoxazol-3-yl]-[4-ethyl-1-methyl-4-(1-methylpyrazol-4-yl)-1,3-dihydroisoquinolin-2-yl]methanone], the inhibition of growth at 20 ppm (in experiment [1]; in the experiment with Mycosphaerella arachidis; in the experiment with Monographella nivalis) was ≥ 80% throughout.
As for `Cc1cc(-c2cc(C(=O)N3Cc4ccccc4C(c4cnn(C)c4C)C3)no2)n(C)n1` (stereo not drawn) [Compound P-226], the inhibition of growth at 20 ppm (in the experiment on Glomerella lagenarium; in experiment [1]) was ≥ 80% throughout.
On to `Cc1c(C2CN(C(=O)c3cc(C4CCCCC4)on3)Cc3ccccc32)cnn1C` (stereo not drawn) [Compound P-236, (5-cyclohexylisoxazol-3-yl)-[4-(1,5-dimethylpyrazol-4-yl)-3,4-dihydro-1H-isoquinolin-2-yl]methanone], for which the inhibition of growth at 20 ppm (in experiment [1]; in the experiment on Mycosphaerella arachidis; in the experiment on Monographella nivalis) was ≥ 80% each time.
For `CC(C)[C@@]1(c2cnn(C)c2)CN(C(=O)c2cc(-c3ccc(F)cc3F)on2)[C@@H](C)c2ccccc21` [Compound P-239, [5-(2,4-difluorophenyl)isoxazol-3-yl]-[(1S,4R)-4-isopropyl-1-methyl-4-(1-methylpyrazol-4-yl)-1,3-dihydroisoquinolin-2-yl]methanone], the inhibition of growth at 20 ppm (in experiment [1]; in the experiment on Mycosphaerella arachidis) was ≥ 80% throughout.
In the case of `CC(C)[C@]1(c2cnn(C)c2)CN(C(=O)c2cc(-c3ccc(F)cc3F)on2)[C@@H](C)c2ccccc21` [Compound P-241, [5-(2,4-difluorophenyl)isoxazol-3-yl]-[(1S,4S)-4-isopropyl-1-methyl-4-(1-methylpyrazol-4-yl)-1,3-dihydroisoquinolin-2-yl]methanone], the inhibition of growth at 20 ppm (in experiment [1]; in the experiment on Mycosphaerella arachidis) was ≥ 80% in each case.
